Laboratory results reported in a melting point compilation (Tetko et al.; mined from patent text by program, amines drawn as free bases though some values may be those of a salt).

For CNC=C1C(=O)C(C)(C)OC1(C)C, the melting point was 80 to 82 °C. For Cc1cc(C2=Nn3cc(C(F)(F)F)nc3SC2c2ccc(F)cc2)cc2c1OCC(=O)N2 (stereo not given), the melting point was 136 to 138 °C. For Cc1nc(-c2ccc(OCC(C)C)c([N+](=O)[O-])c2)sc1C(=O)OCC(C)C, the melting point was 112 to 113 °C. O=C(O)c1ccc(-n2nc(-c3ccccc3O)nc2-c2ccccc2O)cc1 showed a melting point of 255 to 262 °C. Compound COc1ccc2c(c1)C13CCN(C)C(C2)C1CCC(=O)C3 (stereo not given) has a melting point of 187 to 188 °C. For O=C(Nc1ccc2ccc(Cl)nc2n1)c1ccccn1, the melting point was 319 °C. Compound CCOC(=O)C1CCC(=C(C#N)C(=O)c2ccc(Cl)cc2)N1 (stereo not given) has a melting point of 108 to 110 °C. Compound CCCCCCCCCCCCCCCCCCOc1ccc(C(=O)C(=O)OCC)cc1 has a melting point of 46 to 48 °C. CCOC(=O)c1cc(S)n2c(C)nnc2n1 gave a melting point of 206 to 208 °C. Fc1ccc(C(c2ccc(F)cc2)N2CCN(CCCSc3ncnc4nc[nH]c34)CC2)cc1 gave a melting point of 90 to 93 °C. Work on CCc1nn2ccc3oc(C)cc3c2c1CC#N yielded a melting point of 156 to 157 °C. CC[C@@H](CO)[C@](O)(Cn1cncn1)c1ccc(F)cc1F showed a melting point of 75 to 77 °C. CC(C)(C)OC(=O)CN1C(=O)[C@@H](N[C@@H](CCC2CCCCC2)C(=O)O)COc2ccccc21 gave a melting point of 180 to 183 °C. CC12CCC3C(CC=C4NC(=O)CCC43C)C1CC=C2I (stereo not given) gave a melting point of 227 to 230 °C. In the case of Cc1ccc2c(c1)C(=O)c1ccccc1S2(=O)=O, the melting point is reported as 179 to 198 °C. In the case of COC(=O)Cc1csc2c(OCc3cc(-c4ccc(Cl)cc4)on3)cccc12, the melting point is reported as 155 to 156 °C. For CCCCc1nc(Cl)c(CC(=O)O)n1Cc1ccc(NC(=O)c2ccccc2C(=O)O)cc1, the melting point was 170 to 175 °C. Cc1nc(-c2cccc(Cl)c2)c2cc(C(O)(c3ccc(Cl)cc3)c3cncn3C)ccc2n1 (stereo not given) showed a melting point of 223 °C. For O=C(O)CN1C(=O)C(=CC=Cc2ccccc2Br)SC1=S, the melting point was 241 to 244 °C. Compound Cc1cnc(C(=O)c2[nH]c3cc(Cl)ccc3c2CC(=O)O)s1 has a melting point of 225 to 226 °C. With COc1cc(/C=C/c2ccc(C)cc2)cc(OC)c1OC the melting point was 125 to 127 °C. With c1ccc(C(C2=NCCN2)c2ccccn2)cc1 (stereo not given) the melting point was 134 to 136 °C. In the case of O=C(NC(=O)c1c(F)cccc1F)Nc1cc(Cl)c(Cl)c(Cl)c1, the melting point is reported as 231 to 232 °C. In the case of CN(C)CCCOc1ccc(C[C@H](NC(=O)[C@@H]2CCCN2S(=O)(=O)c2cn(C)cn2)C(=O)O)cc1, the melting point is reported as > 200 °C. Compound CN1CCNC1=NC(c1ccccc1)c1ccccc1 has a melting point of 226 to 228 °C. For O=S(=O)(CCS(=O)(=O)c1nc(-c2ccc(F)cc2)c(-c2ccc(F)cc2)[nH]1)c1nc(-c2ccc(F)cc2)c(-c2ccc(F)cc2)[nH]1, the melting point was 246 to 248 °C. With CCN(CC)Cc1csc(N)c1C(=O)c1ccc(Cl)cc1 the melting point was 78 to 80 °C. CN1Cc2c(C(=O)O)ncn2-c2cccnc2C1=O gave a melting point of 292 to 295 °C. With OC1(c2ccc(-c3ccccc3)nc2)CN2CCC1CC2 (stereo not given) the melting point was 214 °C. In the case of CC/C(=C\c1cccc(OCc2nc(-c3ccc(C(F)(F)F)cc3)oc2C)c1)Cn1oc(=O)[nH]c1=O, the melting point is reported as 124 to 125 °C. In the case of Cc1cc(C)c2ncc(NC(=O)C=Cc3ccc(O)cc3)c(-c3ccccc3Cl)c2c1, the melting point is reported as 228 to 230 °C. Compound O=C(O)C1COc2ccc(Cl)c(Cl)c2O1 (stereo not given) has a melting point of 144 to 148 °C. Cc1ccc(-c2c(NS(=O)(=O)c3ccc(C(C)(C)C)cc3)nc(NCCO)nc2OCCOCc2ccccc2)cc1 showed a melting point of 124 to 126 °C. For Cc1cccc(NC(=O)NC2N=C(CC(C)C)c3cccc(C)c3N(CC(=O)C3CCCCC3)C2=O)c1 (stereo not given), the melting point was 152 to 155 °C. COC(=O)C1=NN(c2ccc(F)cc2)C(C)(C(=O)OC)C1 (stereo not given) gave a melting point of 114 to 118 °C. In the case of CCCCCCOc1ccc(CC2SC(=O)NC2=O)cc1 (stereo not given), the melting point is reported as 52 to 54 °C. O=C(NCc1ccccn1)Nc1cc(N2C(=O)COc3ccccc32)ccn1 showed a melting point of 206 to 207 °C. For C#CCN(Cc1ccc2nc(C)[nH]c(=O)c2c1)c1ccc(C(=O)NCC2CCNCC2)cc1, the melting point was 130 to 133 °C. In the case of Cc1cc(C)c2nc(-c3cnc(NCCCC4CCN(C)CC4)nc3C)[nH]c2c1, the melting point is reported as 179 °C. Compound CCC(=O)N1Cc2cn(C)nc2-c2cc(Cl)ccc21 has a melting point of 137 to 138 °C. CCCCCOc1ccc(Cn2c(C)nc(Cl)c2COC(=O)NS(=O)(=O)c2ccc(C)cc2)c(Cl)c1 gave a melting point of 109 to 111 °C. Work on Oc1c(C(O)(C(F)(F)F)C(F)(F)F)cc(Br)c2ccccc12 yielded a melting point of 112 to 115 °C. In the case of COc1cc(OCC(=O)O)c(C)cc1SCc1ccc(-c2ccccc2)cc1, the melting point is reported as 60 to 62 °C. CCN1c2ncccc2C(=O)Nc2c(C)cc(OC)nc21 gave a melting point of 249 to 251 °C. With COc1ccc(C2=NN(Cc3cccc(C(=O)NC4CCCC4)c3)C(=O)CC2)cc1OC the melting point was 179 °C. COc1ccc2c(c1)cc(Cc1cc3cc(OC)ccc3n1S(=O)(=O)c1ccccc1)n2S(=O)(=O)c1ccccc1 showed a melting point of 159 to 160 °C. For O=C1NCN2c3ccccc3Sc3cccc1c32, the melting point was 187 to 192 °C. Work on CCOC(=O)c1c(CC(=O)O)n(-c2ccc(OC(C)C)cc2)c2ccc(Oc3nc(C)ccc3C#N)cc12 yielded a melting point of 179 °C. C[C@@H]1NC(=O)C[C@@]1(O)C1CC1 showed a melting point of 133 to 140 °C. For O=Cc1ccc(C(=O)Nc2ccc(Cl)cc2)cc1, the melting point was 158 °C. Work on CC(=O)SCC(Cc1ccccc1)C(=O)Nc1cc(C(=O)O)ccc1N1CCCCC1 (stereo not given) yielded a melting point of 170 to 174 °C. With O=C1N=C(N2CCOCC2)SC1=Cc1cc(-c2ccc(O)c(C34CC5CC(CC(C5)C3)C4)c2)c(O)cc1O the melting point was 306 to 310 °C. With O=C1NC(c2ccccc2)c2cc(Cl)ccc2-n2nc(CO)cc21 (stereo not given) the melting point was 260 to 262 °C. Work on CCCc1c(OCCCOc2ccc(C(=O)O)cc2)ccc(C(C)=O)c1O yielded a melting point of 180 to 183 °C. Work on COC(=O)c1ccccc1Cn1ccc(OCc2ccc(F)cc2)c(Br)c1=O yielded a melting point of 161 to 165 °C. In the case of CC(C)=CCN1Cc2c(Br)ccc3[nH]c(=S)n(c23)C[C@@H]1C, the melting point is reported as 161 °C. Compound COC(=O)c1ccc(Cn2c(=O)c(C)c3sc(C(=O)NCc4ccc(OC)cc4)cn3c2=O)cc1 has a melting point of 163 to 165 °C. CCOC(=O)OCC(I)=C(I)I gave a melting point of 49 to 50 °C. For NNc1ncccc1Br, the melting point was 146 to 148 °C. Work on CCC(C)c1nn(-c2ccc(C(F)(F)F)cn2)cc1C=O (stereo not given) yielded a melting point of 82 to 83 °C. In the case of CC(=O)ON1C(C)(C)CC2(CC1(C)C)OCC(C)(C)CO2, the melting point is reported as 109 to 111 °C. Compound COc1cccc(Cn2c(=O)c3c(Cl)cc(Cl)cc3n(Cc3ccccc3)c2=O)c1 has a melting point of 106 to 108 °C. CCOC(=O)CNc1nc(-c2ccccc2)c2cc(Cl)ccc2n1 showed a melting point of 146 °C. CC(=O)NN=Cc1ccc(N2CCN(C)CC2)nc1F gave a melting point of 210 to 212 °C. Compound CCSc1cc2ccccc2c(=O)n1Cc1ccccc1 has a melting point of 79 to 80 °C. In the case of Fc1cc2c(cc1F)C(n1cc[nH]c1=S)CC2 (stereo not given), the melting point is reported as 183 to 187 °C. For COC(=O)CS(=O)C(C)c1ccc(-c2ccccc2)c(F)c1 (stereo not given), the melting point was 161 to 163 °C. For O=C1CSCC(=O)NCCNCCN1, the melting point was 206 to 208 °C. Compound CCOC(=O)N1CCC(Nc2nc3ccccc3[nH]2)CC1 has a melting point of 231 to 233 °C. Compound CCOc1cc2ncc(C#N)c(Nc3ccc4c(c3)CCC4)c2cc1OCC has a melting point of 85 to 88 °C. With Cc1cccc2c1CCN=C2c1ccc(F)cc1 the melting point was 71 to 71.5 °C. With CC(O)CN1CCC(c2noc3cc(F)ccc23)CC1 (stereo not given) the melting point was 45 to 47 °C. Compound CCCCCCCCCCCCCCN(C)c1ccc([N+](=O)[O-])cc1C(=O)O has a melting point of 100 to 101 °C. c1ccc(N=C2SCS2)nc1 gave a melting point of 98.7 to 99.7 °C. With O=c1c(-c2ccccc2)cc(CO)c2n1CCc1ccsc1-2 the melting point was 199 to 200 °C. With CCc1c(C)c2c(c(OS(=O)(=O)c3ccc(C)cc3)c1C/C=C(\C)CCC(=O)OC)C(=O)OC2 the melting point was 101 to 103 °C. For CCOC(=O)C(C)(C)Oc1ccc(OCCc2nc(-c3ccc(Br)cc3)oc2C)cc1, the melting point was 78 to 79 °C. With O=C(Nc1ccc2cc(CN3CCCCC3)ccc2c1)N1CCC(c2ccc(Cl)cc2)CC1 the melting point was 231 to 232 °C. Work on Cc1ccc(S(=O)(=O)NC(C)(C)CO)cc1NC(=O)c1cnn2c(C(F)F)cc(-c3ccc(C(F)(F)F)cc3)nc12 yielded a melting point of 214 °C. In the case of Cn1nnnc1-c1ccc(CCl)cc1, the melting point is reported as 90 to 92 °C. Cc1cc(Nc2nc(-c3ccncc3)nc3ccccc23)[nH]n1 showed a melting point of 286 to 289 °C. For Nc1ncnc2c1ncn2OC[C@@H](CO)OCP(=O)(O)O, the melting point was 200 to 205 °C. Work on COc1cc(Cc2cnc(N)nc2N)c2cc(C)oc2c1OC yielded a melting point of 209 to 212 °C. In the case of COc1ccc2c(c1)c(CC1=CC(=O)N=N1)c(C)n2C(=O)c1ccc(Cl)cc1, the melting point is reported as > 230 °C. In the case of O=C(O)c1ccc2c(c1)Sc1cc3c(cc1C=C2)CCC3, the melting point is reported as 103 to 104 °C. Cc1nc2c(O[C@@H]3c4ccccc4C[C@H]3O)cc(Cl)cn2c1C=O (relative stereo) showed a melting point of 220 to 222 °C. With O=c1cc(-c2c(F)cccc2F)[nH]c(=O)n1-c1ccc(Cl)c(Cl)c1 the melting point was 256 °C. CCC1CCC(c2ccc(-c3cc(F)c(C(F)(F)Oc4cc(F)c(C(F)(F)F)c(F)c4)c(F)c3)c(F)c2)CC1 (stereo not given) showed a melting point of 77 °C. CN(C)C(=O)c1nc2ccccc2n(Cc2ccccc2)c1=O gave a melting point of 154 to 155 °C. With CCCCCCCC(=O)Nc1ccn(C2OC(CO)C(O)C2O)c(=O)n1 (stereo not given) the melting point was 151 to 153 °C. Work on CC(C)(C)OC(=O)N1CCN(c2ccc(Br)cn2)CC1 yielded a melting point of 88 to 90 °C. CCOc1ccc(-c2c(C(=O)OC)c(C(=O)OC)c(O)c3cc(OC)c(OC)c(OC)c23)cc1OCC showed a melting point of 138 to 140 °C. For CCN1C(=O)C(C)(C)C(=O)N(C)c2cc(CN(CCn3ccc4oc(C)cc4c3=O)Cc3nc4ccccc4n3C)ccc21, the melting point was 127 to 133 °C. CC(C)(C)c1ccc(-n2cnnc2C(F)(F)F)cc1 gave a melting point of 134 °C. Work on CCC1(C)CC(NC(=O)c2ccccc2)C(C)C(C)(CC)N1OC(C)c1ccccc1 (stereo not given) yielded a melting point of 112 to 147 °C. Work on N#Cc1cc(C=O)cnc1Cl yielded a melting point of 96 °C. With COC1CC(N)C(O)C(C)O1 (stereo not given) the melting point was 130 °C. Work on COc1ccc2oc3ccc([N+](=O)[O-])cc3c2c1C(=O)Nc1cccnc1 yielded a melting point of 263 to 266 °C. For CC12CCC3C(CCC4CC(=O)CCC43C)C1CCC2C#N (stereo not given), the melting point was 150 to 152 °C. For CC(=O)Nc1nc(-c2ccc([N+](=O)[O-])cc2)c(C)[nH]1, the melting point was 230 to 235 °C.
